From patent US20090247542A1, “SYNTHESES AND PREPARATIONS OF POLYMORPHS OF CRYSTALLINE ARIPIPRAZOLE” (MEDICHEM, S.A., priority 2005, published 2009) come the findings set out here.

The nature of this data set: Hygroscopicity measurements (water content by Karl Fisher after humid storage). It counts as physicochemical. The conditions noted are these: for Hygroscopicity: water content (Karl Fisher) after 24 hours at 60° C./100% RH, then 24 hours at room temperature and about 30% RH. On the procedure: vii. Hygroscopicity Measurements
One gram of the sample was accurately weighed in a weighing bottle (diameter 5 cm), covered with kimwipes and left to rest in 60° C./100% RH environment (water/dessicator). 24 hours later, the weighing bottle was removed, transferred to an environment of room temperature and about 30% RH (magnesium chloride hexahydrate saturated water solution/dessicator) and left to rest for 24 hours and the water content of the sample was measured by the Karl Fisher method.

As for `O=C1CCc2ccc(OCCCCN3CCN(c4cccc(Cl)c4Cl)CC3)cc2N1` [Reference Example 2, 7-{4-[4-(2,3-dichlorophenyl)-1-piperazinyl]-butoxy}-3,4-dihydrocarbostyril, reference compound], the Hygroscopicity is 0.35%. For `O=C1CCc2ccc(OCCCCN3CCN(c4cccc(Cl)c4Cl)CC3)cc2N1` [aripiprazole Form J, 7-{4-[4-(2,3-dichlorophenyl)-1-piperazinyl]-butoxy}-3,4-dihydrocarbostyril], the “low hygroscopicity (moisture content)” value (after storing anhydrous aripiprazole Form J for 24 hours at 60° C. and a humidity level of 100%) is no more than 0.5%. `O=C1CCc2ccc(OCCCCN3CCN(c4cccc(Cl)c4Cl)CC3)cc2N1` [Example 1, 7-{4-[4-(2,3-dichlorophenyl)-1-piperazinyl]-butoxy}-3,4-dihydrocarbostyril] yielded a Hygroscopicity of 0.06%.
